Assay results published in ChEMBL document CHEMBL4765341, “A series of octahydroquinazoline-5-ones as novel inhibitors against dengue virus” (Eur J Med Chem, 2020).
The source made the active and inactive calls. No cut-off for these calls is given here.

Columns and labels:
dengue virus type 2 [1] = test: Antiviral activity against DENV-2 infected in BHK-21 cells assessed as cytopathic effect after 96 hrs by LDH assay; type: functional, organism-based; conditions: for EC50: BHK-21, 96 h
[2] = Cytotoxicity against golden hamster BHK-21 cells incubated for 48 hrs by MTT assay; type: cell-based, Mesocricetus auratus
[3] = Selectivity index, ratio of CC50 for golden hamster BHK-21 cells EC50 for DENV-2 infected in BHK-21 cells; type: toxicity, cell-based; conditions: read-out: Selectivity Index
[4] = Reduction in viral structure E protein expression in DENV-2 infected golden hamster BHK-21 cells at 10 uM by Western blot analysis relative to control; type: functional, dengue virus type 2; conditions: Dengue virus
BHK-21 [5] = test: Binding affinity to RdRp domain of NS5 in DENV-2 infected in BHK-21 cells by isothermal titration calorimetry assay; conditions: dengue virus type 2
BHK-21 [6] = test: Reduction in viral structure E protein expression in second round DENV-2 infected golden hamster BHK-21 cells assessed in new virions at 0.5 to 10 uM measured after 24 hrs by confocal microscopy relative to control; type: functional, cell-based; conditions: dengue virus type 2, dose 0.5-10 µM
dengue virus type 2 [7] = test: Antiviral activity against second round DENV-2 infected in BHK-21 cells assessed as reduction in new virion infectivity measured after 24 hrs by focus-forming assay; type: functional, organism-based
BHK-21 [8] = test: Reduction in viral structure E protein expression in second round DENV-2 infected golden hamster BHK-21 cells assessed in new virions at 0.5 to 10 uM measured after 24 hrs by Western blot analysis relative to control; type: functional, cell-based; conditions: dengue virus type 2, dose 0.5-10 µM
BHK-21 [9] = test: Binding affinity to MTase domain of NS5 in DENV-2 infected in BHK-21 cells by isothermal titration calorimetry assay; conditions: dengue virus type 2
BHK-21 [10] = test: Reduction in viral structure E protein expression in DENV-2 infected golden hamster BHK-21 cells at 2.5 uM by Western blot analysis relative to control; type: functional, cell-based; conditions: dengue virus type 2

SMILES	EC50 (dengue virus type 2 [1]) [µM]	further results
CC1(C)CC(=O)C2=C(C1)N(c1ccccc1)C(c1ccc(Br)cc1)N(c1ccc(C(C)(C)C)cc1)C2 (centres undefined)	5.33	–
CCCCC1N(c2ccccc2)CC2=C(CC(C)(C)CC2=O)N1c1ccccc1 (centres undefined)	> 20	–
CC1(C)CC(=O)C2=C(C1)N(c1ccccc1)C(c1ccc(Br)cc1)N(c1ccc(OC(F)(F)F)cc1)C2 (centres undefined)	1.84	–
CC1(C)CC(=O)C2=C(C1)N(c1ccccc1)C(c1ccc(Cl)cc1)N(c1ccccc1)C2 (centres undefined)	5.96	–
CC1(C)CC(=O)C2=C(C1)N(c1ccccc1)C(c1ccc(Br)cc1)N(c1ccc(Cl)cc1)C2 (centres undefined)	1.38	CC50 at 48 h [2]: 12.7 µM; selectivity ratio [3]: 9.18
CC1(C)CC(=O)C2=C(C1)N(c1ccccc1)C(c1cccc([N+](=O)[O-])c1)N(c1ccccc1)C2 (centres undefined)	2.83	–
CC1(C)CC(=O)C2=C(C1)N(c1ccccc1)C(c1ccccc1Br)N(c1ccccc1)C2 (centres undefined)	3.88	–
COc1ccc(N2C3=C(CN(c4ccc(Cl)cc4)C2c2ccc(Br)cc2)C(=O)CC(C)(C)C3)cc1 (centres undefined)	2.6	CC50 at 48 h [2]: > 20 µM; selectivity ratio [3]: > 7.69
CC1(C)CC(=O)C2=C(C1)N(c1ccccc1)C(c1ccc(C#N)cc1)N(c1ccccc1)C2 (centres undefined)	7.45	–
CC1(C)CC(=O)C2=C(C1)N(Cc1ccccc1)C(c1ccccc1)N(Cc1ccccc1)C2 (centres undefined)	> 20	–
CC1(C)CC(=O)C2=C(C1)N(c1ccccc1)C(c1ccc(-c3ccccc3)cc1)N(c1ccccc1)C2 (centres undefined)	> 20	–
CC1(C)CC(=O)C2=C(C1)N(c1ccccc1)C(c1ccc(Br)cc1)N(c1ccc(F)cc1)C2 (centres undefined)	1.9	CC50 at 48 h [2]: 10 µM; selectivity ratio [3]: 5.3
CC1(C)CC(=O)C2=C(C1)N(c1ccc(Cc3ccccc3)cc1)C(c1ccc(Br)cc1)N(c1ccc(Cl)cc1)C2 (centres undefined)	> 20	–
COc1ccc(C2N(c3ccccc3)CC3=C(CC(C)(C)CC3=O)N2c2ccccc2)cc1 (centres undefined)	7.52	–
CC1(C)CC(=O)C2=C(C1)N(c1ccccc1)C(c1ccccc1)N(c1ccccc1)C2 (centres undefined)	> 20	–
CC1(C)CC(=O)C2=C(C1)N(c1ccccc1)C(c1ccc(Br)cc1)N(c1ccc(Br)cc1)C2 (centres undefined)	2.33	–
CC1(C)CC(=O)C2=C(C1)N(c1ccccc1)C(c1ccc(Br)cc1)N(c1ccc3ccccc3c1)C2 (centres undefined)	1.77	–
CC(C)c1ccc(N2CC3=C(CC(C)(C)CC3=O)N(c3ccccc3)C2c2ccc(Br)cc2)cc1 (centres undefined)	5.55	–
CC1(C)CC(=O)C2=C(C1)N(c1ccccc1)C(c1ccc(OC(F)(F)F)cc1)N(c1ccccc1)C2 (centres undefined)	2.52	–
CC1(C)CC(=O)C2=C(C1)N(c1ccccc1)C(c1cccc(C(F)(F)F)c1)N(c1ccccc1)C2 (centres undefined)	1.32	CC50 at 48 h [2]: 17.9 µM; selectivity ratio [3]: 13.5
CC1(C)CC(=O)C2=C(C1)N(c1ccccc1)C(c1ccc(Br)cc1)N(c1cccc(Cl)c1)C2 (centres undefined)	4.73	–
CC(C)C1N(c2ccccc2)CC2=C(CC(C)(C)CC2=O)N1c1ccccc1 (centres undefined)	> 20	–
CC(C)Oc1ccc(C2N(c3ccccc3)CC3=C(CC(C)(C)CC3=O)N2c2ccccc2)cc1 (centres undefined)	5.03	–
CC1(C)CC(=O)C2=C(C1)N(c1ccccc1)C(c1ccc(F)cc1)N(c1ccccc1)C2 (centres undefined)	> 20	–
CC1(C)CC(=O)C2=C(C1)N(c1ccccc1)C(c1ccc([N+](=O)[O-])cc1)N(c1ccccc1)C2 (centres undefined)	3.75	–

SMILES	EC50 (dengue virus type 2 [1]) [µM]	further results
CC1(C)CC(=O)C2=C(C1)N(c1ccccc1)C(c1ccc(Br)cc1)N(Cc1ccccc1)C2 (centres undefined)	> 20	–
CC1(C)CC(=O)C2=C(C1)N(c1ccccc1)C(c1ccc(Br)cc1)N(c1ccccc1Cl)C2 (centres undefined)	> 20	–
CC1(C)CC(=O)C2=C(C1)N(c1ccc(Oc3ccccc3)cc1)C(c1ccc(Br)cc1)N(c1ccc(Cl)cc1)C2 (centres undefined)	> 20	–
CC1(C)CC(=O)C2=C(C1)N(c1ccccc1)C(c1cccs1)N(c1ccccc1)C2 (centres undefined)	> 20	–
CC1(C)CC(=O)C2=C(C1)N(c1ccccc1)C(c1cccc3ccccc13)N(c1ccccc1)C2 (centres undefined)	3.87	–
CC1(C)CC(=O)C2=C(C1)N(c1ccccc1)C(c1ccc(C(F)(F)F)cc1)N(c1ccccc1)C2 (centres undefined)	3.75	–
CC1(C)CC(=O)C2=C(C1)N(c1ccccc1)C(c1ccc(C(C)(C)C)cc1)N(c1ccccc1)C2 (centres undefined)	8.61	–
COc1ccc(N2CC3=C(CC(C)(C)CC3=O)N(c3ccccc3)C2c2ccc(Br)cc2)cc1 (centres undefined)	5.42	–
CC1(C)CC(=O)C2=C(C1)N(c1ccc3ccccc3c1)C(c1ccc(Br)cc1)N(c1ccc(Cl)cc1)C2 (centres undefined)	13.5	–
CC1(C)CC(=O)C2=C(C1)N(c1ccccc1)C(c1ccc3ccccc3c1)N(c1ccccc1)C2 (centres undefined)	> 20	–
CC1(C)CC(=O)C2=C(C1)N(c1ccc(-c3ccccc3)cc1)C(c1ccc(Br)cc1)N(c1ccc(Cl)cc1)C2 (centres undefined)	> 20	–
Cc1ccc(C2N(c3ccccc3)CC3=C(CC(C)(C)CC3=O)N2c2ccccc2)s1 (centres undefined)	3.24	–
CC1(C)CC(=O)C2=C(C1)N(c1ccccc1)C(c1ccc(O)cc1)N(c1ccccc1)C2 (centres undefined)	> 20	–
CC1(C)CC(=O)C2=C(C1)N(c1ccccc1)C(c1cccc(Br)c1)N(c1ccccc1)C2 (centres undefined)	1.31	inhibition at 10 µM [4]: 100%; Activity (BHK-21 [5]): inactive; inhibition (BHK-21 [6]): Active; Activity (dengue virus type 2 [7]): Active; inhibition (BHK-21 [8]): Active; Activity (BHK-21 [9]): inactive; CC50 at 48 h [2]: > 20 µM; selectivity ratio [3]: > 15.3; Activity (dengue virus type 2 [1]): Dose-dependent effect; inhibition (BHK-21 [10]): Active
CC1(C)CC(=O)C2=C(C1)N(c1ccccc1)C(c1ccc(OCc3ccccc3)cc1)N(c1ccccc1)C2 (centres undefined)	2.61	–
CC(C)c1ccc(C2N(c3ccccc3)CC3=C(CC(C)(C)CC3=O)N2c2ccccc2)cc1 (centres undefined)	3.6	–
CC1(C)CC(=O)C2=C(C1)N(c1ccccc1)C(c1ccc(OC(C)(C)C)cc1)N(c1ccccc1)C2 (centres undefined)	2.63	–
CC1(C)CC(=O)C2=C(C1)N(c1ccccc1)C(c1ccc(Br)cc1)N(c1ccc(Oc3ccccc3)cc1)C2 (centres undefined)	1.85	CC50 at 48 h [2]: 10.9 µM; selectivity ratio [3]: 5.89
COc1cc(C2N(c3ccccc3)CC3=C(CC(C)(C)CC3=O)N2c2ccccc2)cc(OC)c1O (centres undefined)	> 20	–
CC1(C)CC(=O)C2=C(C1)N(c1ccccc1)C(c1ccc(Br)cc1)N(c1ccccc1)C2 (centres undefined)	2.85	CC50 at 48 h [2]: > 20 µM; selectivity ratio [3]: > 7.02
CC1(C)CC(=O)C2=C(C1)N(c1ccccc1)C(c1ccc(Br)cc1)N(c1ccc(-c3ccccc3)cc1)C2 (centres undefined)	> 20	–
CC1(C)CC(=O)C2=C(C1)N(c1cccc(Cl)c1)C(c1ccc(Br)cc1)N(c1ccc(Cl)cc1)C2 (centres undefined)	5.6	–
CC1(C)CC(=O)C2=C(C1)N(c1ccc(F)cc1)C(c1ccc(Br)cc1)N(c1ccc(Cl)cc1)C2 (centres undefined)	2.64	CC50 at 48 h [2]: > 20 µM; selectivity ratio [3]: > 7.58
CC1(C)CC(=O)C2=C(C1)N(c1ccc(Cl)cc1)C(c1ccc(Br)cc1)N(c1ccc(Cl)cc1)C2 (centres undefined)	4.33	–
CC1(C)CC(=O)C2=C(C1)N(c1ccccc1)C(c1ccc(Br)cc1)N(c1ccc(C(F)(F)F)cc1)C2 (centres undefined)	4.02	–
